Source: article PMC6100082, “Pyridine-Ureas as Potential Anticancer Agents: Synthesis and In Vitro Biological Evaluation” (Molecules : A Journal of Synthetic Chemistry and Natural …, 2018)

Assays:
Format in all cases: cell-based, human
NCI 58 cell line panel = test: NCI one-dose SRB assay, whole panel / subpanel summary; conditions: for inhibition at 10 µM: Homo sapiens, one dose, read-out: mean inhibition (mean % growth inhibition over NCI 58 cell line panel); for Mean Growth Percent: One Dose Mean Graph, 1.00E-5 Molar
Method: (§1) The structures of all the newly prepared pyridine-ureas 8a–n were submitted to the National Cancer Institute (NCI) Developmental Therapeutic Program. Eight compounds 8b, 8d, 8e, 8i, 8j and 8l–n were selected to be examined for their in vitro growth inhibitory activity. The anticancer assays were carried out according to the protocol of the Drug Evaluation Branch, NCI, Bethesda. The selected pyridine-ureas were tested at one dose primary anticancer assay against a panel of approximately 58 cancer lines (concentration 10^−5 M). The tested human cancer cell lines emerged from nine different cancer subtypes: leukemia, colon, melanoma, ovarian, lung, CNS, renal, breast and prostate cancers. The sulforhodamine B (SRB) protein assay was adopted to estimate the cell viability and growth. The results were reported as mean-graph of the percentage growth of the treated cells, and presented as percentage growth inhibition (GI%) caused by the test compounds (Table 2).
(§2) The anticancer assays were performed in accordance with the protocol of the Drug Evaluation Branch, NCI, Bethesda. A 48 h drug exposure protocol was used and sulforhodamine B (SRB) protein assay was applied to estimate the cell viability and growth, as reported earlier.

CCRF-CEM = test: NCI one-dose SRB assay (Leukemia); conditions: for Growth Percent: 1.00E-5 Molar; for inhibition at 10 µM: Homo sapiens, read-out: Percentage growth inhibition (GI%)
Method: as §1, §2

HL-60(TB) = test: NCI one-dose SRB assay (Leukemia); conditions: for Growth Percent: 1.00E-5 Molar; for inhibition at 10 µM: Homo sapiens, read-out: Percentage growth inhibition (GI%)
Method: as §1, §2

K-562 = test: NCI one-dose SRB assay (Leukemia); conditions: for inhibition at 10 µM: Homo sapiens, K562, K-562, 10 μM, read-out: Percentage growth inhibition (GI%); for Growth Percent: K-562, 1.00E-5 Molar
Method: as §1, §2

MOLT-4 = test: NCI one-dose SRB assay (Leukemia); conditions: for inhibition at 10 µM: Homo sapiens, MOLT-4, 10 μM, read-out: Percentage growth inhibition (GI%); for Growth Percent: MOLT-4, 1.00E-5 Molar
Method: as §1, §2

RPMI-8226 = test: NCI one-dose SRB assay (Leukemia); conditions: for inhibition at 10 µM: Homo sapiens, RPMI-8226, 10 μM, read-out: Percentage growth inhibition (GI%); for Growth Percent: RPMI-8226, 1.00E-5 Molar
Method: as §1, §2

SR = test: NCI one-dose SRB assay (Leukemia); conditions: for Growth Percent: 1.00E-5 Molar; for inhibition at 10 µM: Homo sapiens, read-out: Percentage growth inhibition (GI%)
Method: as §1, §2

COLO 205 = test: NCI one-dose SRB assay (Colon Cancer); conditions: for Growth Percent: COLO 205, 1.00E-5 Molar; for inhibition at 10 µM: Homo sapiens, COLO 205, 10 μM, read-out: Percentage growth inhibition (GI%)
Method: as §1, §2

HCC-2998 = test: NCI one-dose SRB assay (Colon Cancer); conditions: for Growth Percent: HCC-2998, 1.00E-5 Molar; for inhibition at 10 µM: Homo sapiens, HCC-2998, 10 μM, read-out: Percentage growth inhibition (GI%)
Method: as §1, §2

HCT-116 = test: NCI one-dose SRB assay (Colon Cancer); conditions: for Growth Percent: HCT-116, 1.00E-5 Molar; for inhibition at 10 µM: Homo sapiens, HCT-116, 10 μM, read-out: Percentage growth inhibition (GI%)
Method: as §1, §2

HCT-15 = test: NCI one-dose SRB assay (Colon Cancer); conditions: for Growth Percent: HCT-15, 1.00E-5 Molar; for inhibition at 10 µM: Homo sapiens, HCT-15, 10 μM, read-out: Percentage growth inhibition (GI%)
Method: as §1, §2

HT29 = test: NCI one-dose SRB assay (Colon Cancer); conditions: for Growth Percent: HT29, 1.00E-5 Molar; for inhibition at 10 µM: Homo sapiens, HT-29, HT29, 10 μM, read-out: Percentage growth inhibition (GI%)
Method: as §1, §2

KM12 = test: NCI one-dose SRB assay (Colon Cancer); conditions: for inhibition at 10 µM: Homo sapiens, KM12, 10 μM, read-out: Percentage growth inhibition (GI%); for Growth Percent: KM12, 1.00E-5 Molar
Method: as §1, §2

SW-620 = test: NCI one-dose SRB assay (Colon Cancer); conditions: for inhibition at 10 µM: Homo sapiens, SW-620, 10 μM, read-out: Percentage growth inhibition (GI%); for Growth Percent: SW-620, 1.00E-5 Molar
Method: as §1, §2

SF-268 = test: NCI one-dose SRB assay (CNS Cancer); conditions: for inhibition at 10 µM: Homo sapiens, SF-268, 10 μM, read-out: Percentage growth inhibition (GI%); for Growth Percent: SF-268, 1.00E-5 Molar
Method: as §1, §2

SF-295 = test: NCI one-dose SRB assay (CNS Cancer); conditions: for inhibition at 10 µM: Homo sapiens, SF-295, 10 μM, read-out: Percentage growth inhibition (GI%); for Growth Percent: SF-295, 1.00E-5 Molar
Method: as §1, §2

SF-539 = test: NCI one-dose SRB assay (CNS Cancer); conditions: for inhibition at 10 µM: Homo sapiens, SF-539, 10 μM, read-out: Percentage growth inhibition (GI%); for Growth Percent: SF-539, 1.00E-5 Molar
Method: as §1, §2

SNB-19 = test: NCI one-dose SRB assay (CNS Cancer); conditions: for inhibition at 10 µM: Homo sapiens, SNB-19, 10 μM, read-out: Percentage growth inhibition (GI%); for Growth Percent: SNB-19, 1.00E-5 Molar
Method: as §1, §2

SNB-75 = test: NCI one-dose SRB assay (CNS Cancer); conditions: for inhibition at 10 µM: Homo sapiens, SNB-75, 10 μM, read-out: Percentage growth inhibition (GI%); for Growth Percent: SNB-75, 1.00E-5 Molar
Method: as §1, §2

U251 = test: NCI one-dose SRB assay (CNS Cancer); conditions: for inhibition at 10 µM: Homo sapiens, U-251, U251, 10 μM, read-out: Percentage growth inhibition (GI%); for Growth Percent: U251, 1.00E-5 Molar
Method: as §1, §2

786-0 = test: NCI one-dose SRB assay (Renal Cancer); conditions: for Growth Percent: 786-0, 1.00E-5 Molar; for inhibition at 10 µM: Homo sapiens, 786-0, 10 μM, read-out: Percentage growth inhibition (GI%)
Method: as §1, §2

A498 = test: NCI one-dose SRB assay (Renal Cancer); conditions: for Growth Percent: A498, 1.00E-5 Molar; for inhibition at 10 µM: Homo sapiens, A498, 10 μM, read-out: Percentage growth inhibition (GI%)
Method: as §1, §2

RXF 393 = test: NCI one-dose SRB assay (Renal Cancer); conditions: for inhibition at 10 µM: Homo sapiens, RXF 393, 10 μM, read-out: Percentage growth inhibition (GI%); for Growth Percent: RXF 393, 1.00E-5 Molar
Method: as §1, §2

SN12C = test: NCI one-dose SRB assay (Renal Cancer); conditions: for Growth Percent: 1.00E-5 Molar; for inhibition at 10 µM: Homo sapiens, read-out: Percentage growth inhibition (GI%)
Method: as §1, §2

TK-10 = test: NCI one-dose SRB assay (Renal Cancer); conditions: for inhibition at 10 µM: Homo sapiens, TK-10, 10 μM, read-out: Percentage growth inhibition (GI%); for Growth Percent: TK-10, 1.00E-5 Molar
Method: as §1, §2

UO-31 = test: NCI one-dose SRB assay (Renal Cancer); conditions: for inhibition at 10 µM: Homo sapiens, UO-31, 10 μM, read-out: Percentage growth inhibition (GI%); for Growth Percent: UO-31, 1.00E-5 Molar
Method: as §1, §2

DU-145 = test: NCI one-dose SRB assay (Prostate); conditions: for Growth Percent: DU-145, 1.00E-5 Molar; for inhibition at 10 µM: Homo sapiens, DU-145, 10 μM, read-out: Percentage growth inhibition (GI%)
Method: as §1, §2

PC-3 = test: NCI one-dose SRB assay (Prostate); conditions: for inhibition at 10 µM: Homo sapiens, PC-3, 10 μM, read-out: Percentage growth inhibition (GI%); for Growth Percent: PC-3, 1.00E-5 Molar
Method: as §1, §2

## COc1ccc(-c2ccc(NC(=O)Nc3ccc(Cl)cc3)c(C)n2)cc1 [Compound 8d, 1-(4-Chlorophenyl)-3-(6-(4-methoxyphenyl)-2-methylpyridin-3-yl) Urea]
NCI 58 cell line panel
  inhibition at 10 µM: 14%
  Mean Growth Percent: 86.24%
CCRF-CEM
  Growth Percent: 81.43%
  inhibition at 10 µM: 19%
HL-60(TB)
  Growth Percent: 79.74%
  inhibition at 10 µM: 21%
K-562
  inhibition at 10 µM: 16%
  Growth Percent: 84.35%
MOLT-4
  inhibition at 10 µM: 28%
  Growth Percent: 72.42%
RPMI-8226
  inhibition at 10 µM: 10%
  Growth Percent: 90.15%
SR
  Growth Percent: 43.88%
  inhibition at 10 µM: 57%
COLO 205
  Growth Percent: 102.39%
  inhibition at 10 µM: < 10%
HCC-2998
  Growth Percent: 104.24%
  inhibition at 10 µM: < 10%
HCT-116
  Growth Percent: 76.10%
  inhibition at 10 µM: 24%
HCT-15
  Growth Percent: 85.74%
  inhibition at 10 µM: 15%
HT29
  Growth Percent: 85.13%
  inhibition at 10 µM: 15%
KM12
  inhibition at 10 µM: < 10%
  Growth Percent: 93.09%
SW-620
  inhibition at 10 µM: 23%
  Growth Percent: 77.06%
SF-268
  inhibition at 10 µM: < 10%
  Growth Percent: 96.43%
SF-295
  inhibition at 10 µM: < 10%
  Growth Percent: 97.10%
SF-539
  inhibition at 10 µM: 16%
  Growth Percent: 84.16%
SNB-19
  inhibition at 10 µM: < 10%
  Growth Percent: 94.20%
SNB-75
  inhibition at 10 µM: 16%
  Growth Percent: 84.87%
U251
  inhibition at 10 µM: 24%
  Growth Percent: 76.51%
786-0
  Growth Percent: 90.10%
  inhibition at 10 µM: 10%
A498
  Growth Percent: 79.24%
  inhibition at 10 µM: 21%
RXF 393
  inhibition at 10 µM: < 10%
  Growth Percent: 98.51%
SN12C
  Growth Percent: 98.33%
  inhibition at 10 µM: < 10%
TK-10
  inhibition at 10 µM: < 10%
  Growth Percent: 102.41%
UO-31
  inhibition at 10 µM: 11%
  Growth Percent: 89.14%
DU-145
  Growth Percent: 98.63%
  inhibition at 10 µM: < 10%
PC-3
  inhibition at 10 µM: 24%
  Growth Percent: 76.01%

## COc1ccc(NC(=O)Nc2ccc(-c3ccc(OC)c(OC)c3)nc2C)cc1 [Compound 8n, 1-(6-(3,4-Dimethoxyphenyl)-2-methylpyridin-3-yl)-3-(4-methoxyphenyl) Urea]
NCI 58 cell line panel
  inhibition at 10 µM: 22 to 34%
  Mean Growth Percent: 66.18%
CCRF-CEM
  Growth Percent: 97.16%
  inhibition at 10 µM: < 10%
HL-60(TB)
  Growth Percent: 85.74%
  inhibition at 10 µM: 15%
K-562
  inhibition at 10 µM: 27%
  Growth Percent: 73.25%
MOLT-4
  inhibition at 10 µM: 15%
  Growth Percent: 85.62%
RPMI-8226
  inhibition at 10 µM: 17%
  Growth Percent: 83.77%
SR
  Growth Percent: 57.29%
  inhibition at 10 µM: 43%
COLO 205
  Growth Percent: 91.95%
  inhibition at 10 µM: < 10%
HCC-2998
  Growth Percent: 83.10%
  inhibition at 10 µM: 17%
HCT-116
  Growth Percent: 49.40%
  inhibition at 10 µM: 51%
HCT-15
  Growth Percent: 91.77%
  inhibition at 10 µM: < 10%
HT29
  Growth Percent: 68.76%
  inhibition at 10 µM: 32%
KM12
  inhibition at 10 µM: 55%
  Growth Percent: 45.29%
SW-620
  inhibition at 10 µM: 36%
  Growth Percent: 64.84%
SF-268
  inhibition at 10 µM: 41%
  Growth Percent: 59.25%
SF-295
  inhibition at 10 µM: < 10%
  Growth Percent: 101.75%
SF-539
  inhibition at 10 µM: 30%
  Growth Percent: 70.63%
SNB-19
  inhibition at 10 µM: 29%
  Growth Percent: 71.47%
SNB-75
  inhibition at 10 µM: 53%
  Growth Percent: 47.52%
U251
  inhibition at 10 µM: 78%
  Growth Percent: 22.08%
786-0
  Growth Percent: 11.07%
  inhibition at 10 µM: 89%
A498
  Growth Percent: 71.94%
  inhibition at 10 µM: 29%
RXF 393
  inhibition at 10 µM: 42%
  Growth Percent: 58.20%
SN12C
  Growth Percent: 64.38%
  inhibition at 10 µM: 36%
TK-10
  inhibition at 10 µM: 40%
  Growth Percent: 60.42%
UO-31
  inhibition at 10 µM: 19%
  Growth Percent: 81.72%
DU-145
  Growth Percent: 72.24%
  inhibition at 10 µM: 28%
PC-3
  inhibition at 10 µM: 19%
  Growth Percent: 81.42%
